Values joined by “and” are separate entries in the source; they are usually repeats but may differ in a detail not shown here. Identical values can stand only once.

In this assay the target is T1, Thromboxane A2 receptor (Homo sapiens, UniProt P21731).
T1 sequence (P21731 whole entry): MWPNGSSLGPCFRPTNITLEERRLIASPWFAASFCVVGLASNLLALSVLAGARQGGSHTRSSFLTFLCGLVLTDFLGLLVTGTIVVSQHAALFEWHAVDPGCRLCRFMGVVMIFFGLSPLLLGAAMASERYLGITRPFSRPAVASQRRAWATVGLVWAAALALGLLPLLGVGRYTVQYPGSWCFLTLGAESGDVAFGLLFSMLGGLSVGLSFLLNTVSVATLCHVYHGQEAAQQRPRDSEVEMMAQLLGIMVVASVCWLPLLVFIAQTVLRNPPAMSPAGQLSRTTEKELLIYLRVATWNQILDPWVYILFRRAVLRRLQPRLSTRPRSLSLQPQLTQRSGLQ
For `CCCCCCC(=O)NCC(=O)NCC1C2CCC(O2)C1CC=CCCCC(=O)O` (centres undefined) [CAS_119571], the inhibition constant (Ki) is 49.6 nM and 28.3 nM.

As for `CCCCCC(O)C=CC1C2COC(C2)C1CC=CCCCC(=O)O` (centres undefined) [NSC_114865], the Ki was 7.1 nM and 4.4 nM.

In the case of `CC(c1ccccc1)C(O)C=CC1C2CCC(O2)C1CC=CCCCC(=O)O` (centres undefined) [NSC_3036123], the inhibition constant (Ki) is 72.7 nM and 31.8 nM.

As to `CCCCC[C@H](O)/C=C/C1[C@@H](C/C=C\CCCC(=O)O)[C@H]2CO[C@@H]1C2` (some centres undefined) [U46619], the Ki was 18.7 nM and 3.6 nM.

Usually Ki stands for the dissociation constant of the complex between target and ligand, obtained from inhibition or displacement. Low values mean higher affinity, high ones lower affinity.
